# Test results reported in article PMC12670396, “Crizotinib- or Ceritinib-Conjugated Platinum(IV) Prodrugs As Potent Multiaction Agents Inducing Antiproliferative Effects in 2D and 3D Cancer Cell Models” (Journal of Medicinal Chemistry, 2025).
# Columns and labels:
# CT26 and NCI-H2228 cells = experiment: Extracellular HMGB1 (ELISA); type: cell-based; details: IC50 concentrations, 24 h
# Method: The amount of HMGB1 in the medium was determined using an enzyme-linked immunosorbent assay (ELISA).
# CT26 and NCI-H2228 cells were seeded in 48-well plates at a density of 5 × 10^4 cells/well and grown overnight. […] Aliquots of the supernatants were then withdrawn and processed using the HMGB1 Express ELISA kit (TECAN) according to the manufacturer’s instructions. The final absorbance, proportional to the HMGB1 amount, was read at 420 nm using a multimode SPARK reader (TECAN).
# NCI-H2228 cells = experiment: Cell death mode (Annexin V/PI, flow cytometry); type: cell-based, human; details: NCI-H2228, 3 × IC50, 48 h
# Text: Flow cytometric analysis was used to assess the mode of cell death induced in NCI-H2228 cells by the tested complexes. Annexin V staining was employed to recognize the externalization of phosphatidyl serine, a feature considered an apoptotic marker. Propidium iodide (PI) was used to stain cells with compromised cell membranes (a sign of necrosis). Staurosporine was included in the experiment as a positive control for apoptosis. […] Apoptosis appears to be the leading mode of cell death in the entire group of tested compounds, with a varying distribution of cell populations between early and late apoptosis.
# Staurosporine (4 μM; 2 h) was used as a positive control of apoptosis. The cells were then harvested with trypsin and stained with Annexin V-Pacific Blue conjugate (1:20 dilution) and PI (10 μg mL^–1) for 15 min. The samples were analyzed with flow cytometry (FACS Verse), 3 × 10^4 cells were analyzed following the exclusion of cell aggregates, and the data was analyzed with FCS Express 7 (DeNovo software, Glendale, CA).
SMILES,HMGB1 externalization relative to nontreated control (CT26 and NCI-H2228 cells),mode of cell death (NCI-H2228 cells)
"N.N.[Cl][Pt][Cl] [cisPt, cisplatin, reference compound]",2 fold,
"CC(Oc1cc(-c2cnn(C3CCN(C(=O)[O][Pt]([Cl])([Cl])[O]C(=O)CCCc4ccccc4)CC3)c2)cnc1N)c1c(Cl)ccc(F)c1Cl.N.N (stereo not drawn) [compound 3, ctc-[Pt(NH3)2(crizotinib)(PhB)Cl2]]",,apoptotic phenotype
"Cc1cc(Nc2ncc(Cl)c(Nc3ccccc3S(=O)(=O)C(C)C)n2)c(OC(C)C)cc1C1CCN(C(=O)[O][Pt]([Cl])([Cl])[O]C(=O)CCCc2ccccc2)CC1.N.N [compound 7, ctc-[Pt(NH3)2(ceritinib)(PhB)Cl2]]",,apoptotic phenotype
